{"source": "patent US11261189B2", "about": "“Substituted 2,4 diamino-quinoline as new medicament for fibrosis, autophagy and cathepsins B (CTSB), L (CTSL) and D (CTSD) related diseases” (Genoscience Pharma, priority 2018, dated 2022)", "key": {"[1]": {"test_system": "autophagy flux (LC3-II) in RBE cell line", "assay": "Autophagy flux, LC3-II immunoblot with/without Bafilomycin, RBE cell line", "assay_type": "cell-based", "details": "24 hours of treatment", "experimental": "The capacity of compound 2-2 to modulate the cellular autophagy processes was also evaluated in the intrahepatic cholangiocarcinoma cell line RBE.\nThe RBE cell line was maintained in RPMI (Roswell Park Memorial Institute) 1640 (Cat #L0498-500, Dutscher) containing 1% penicillin-streptomycin (Cat #P06-07100, Dutscher) and 10% FBS (Cat #SV30160.03C, Dutscher). RBE Cells line were cultured at 37° C. with 5% CO2.\nThe day before the experiment, 6-well plates with 125,000 cells in 1.8 mL of medium per well were prepared.\nCompound 2-2 was dissolved with filtrated DMSO to make a 10 mM stock solution and serial working solutions (10× solutions) at 9 μM, 18 μM and 36 μM were prepared with the diluent (=culture medium with 0.12% DMSO) to maintain a constant percentage of DMSO. Bafilomycin [CAS 88899-55-2] (Cat #B1793-10UG, Sigma) was dissolved with DMSO to make a 160.6 μM stock solution and a working solution (200× solution) was prepared with the culture medium at 20.1 μM. A “Baf diluent” solution corresponding to the dilution of DMSO in the Bafilomycin 200× solution (culture medium with 12.5% DMSO) is also prepared. […]\nAfter 24 hours of cell line treatment, the medium was removed from each well. […] Total protein concentration was assessed using the BCA reagent (Cat #23227, ThermoFischer) and cellular lysates were stored at −80° C. until western-blot analysis. […]"}, "[2]": {"test_system": "diethyl nitrosamine (DEN) cirrhotic rat model of liver fibrosis", "assay": "DEN induced cirrhosis in rats, study 2: Sirius red quantification of liver fibrosis", "assay_type": "in vivo", "experimental": "A second in vivo experiment, with the same diethyl nitrosamine (DEN) cirrhotic rat animal model of liver fibrosis, was performed including compound 2-2 (base form of compound 2-3) with discontinued oral dosing schedule and compound 5-3 with daily oral exposure. Compounds 2-2 and 5-3 were administered p.o. by gavage (oral gavage) once daily during 7 weeks.\nRats were treated with DEN for 13 weeks (intra-peritoneal injections (i.p.) of 50 mg/kg/week) and then treated according to the Table 10 dosage schedule during 7 weeks. At the end of the study, all animals were sacrificed using CO2 and rat livers were collected for analysis. The quantification of the liver fibrotic tissue was evaluated by Sirius red staining of rat liver sections.\nGroup 1 contained 6 animals which were daily dosed (q.d.) by oral gavage (per os, p.o.) with the vehicle during 7 weeks.\nGroup 2 contained 8 animals and the corresponding animals were daily dosed (q.d.) by oral gavage (per os, p.o.) with compound 2-2 during 4 weeks at 20 mg/kg/day and then during 3 weeks at 20 mg/kg every 2 days (q.o.d.: quaque altera die, one day treated, on day untreated).\nGroup 3 contained 8 animals and the corresponding animals were daily dosed (q.d.) by oral gavage (per os, p.o.) with compound 2-2 during 3 weeks at 20 mg/kg/day, then 2 weeks of treatment free period, and were then daily dosed (q.d.) by oral gavage (per os, p.o.) with compound 2-2 during 2 weeks at 20 mg/kg/day.\nGroup 4 contained 8 animals and the corresponding animals were daily dosed (q.d.) by oral gavage (per os, p.o.) with compound 5-3 during 4 weeks at 20 mg/kg/day, and were then daily dosed (q.d.) by oral gavage (per os, p.o.) with compound 5-3 during 3 weeks at 15 mg/kg/day.\nCompound 2-2 and 5-3 were formulated in water for injection acidified with hydrochloric acid to pH 4."}}}
{"smiles": "CC(C)(C)NC1CCN(c2cc(NCc3ccc(Cl)cc3)nc3ccccc23)CC1", "note": "[2-2, 2-(4-chlorobenzylamino)-4-(4-tert-butylaminopiperidin-1-yl)-quinoline]", "values": [{"measurement": "accumulation of the LC3-II form", "setting": "[1]", "value": "significantly induced a dose-dependent accumulation of the LC3-II form"}, {"measurement": "autophagic flux (LC3-II Baf+/Baf− ratio)", "setting": "[1]", "value": "induced an inhibition of the autophagic flux"}, {"measurement": "reduction of the level of collagen fibers deposition (Sirius red) compared to the control group", "setting": "[2]; group 2 (20 qd/qod): 20 mg/kg p.o. q.d. 4 weeks then q.o.d. 3 weeks, after 13 weeks DEN, p=0.04", "value": 23, "unit": "%"}, {"measurement": "reduction of the level of collagen fibers deposition (Sirius red) compared to the control group", "setting": "[2]; group 3 (20 3WON/2WOFF/2WON): 20 mg/kg p.o. q.d. 3 weeks, 2 weeks off, q.d. 2 weeks, p=0.01", "value": 29, "unit": "%"}]}
